Experimental data reported in patent US11851642B2, “Test device” (HITACHI HIGH-TECH CORPORATION, priority 2015, dated 2023).
Values joined by “and” are separate entries in the source; they are usually repeats but may differ in a detail not shown here. Equal values may be shown once.

Assays:
Format in all cases: cell-based
[1] = system: Staphylococcus aureus separated from the patient A; experiment: antimicrobial susceptibility testing by microscopic observation, areas of the bacteria; conditions: for antimicrobial susceptibility determination (comparison with the break points): FIG. 20(a)
Source text: (§1) In order to perform the antimicrobial susceptibility testing, antimicrobial agents different from each other are set so as to be respectively contained in the culture fluids in each of the wells in particular concentrations. An order of the culturing is as follows. First, the bacterial suspension is introduced into the culture plate 18. Then, the bacterial suspension is in a state of being mixed with the culture fluid which is included in each of the wells, and the temperature controller 16 is set to a temperature of approximately 35° C. Furthermore, culture is performed by performing incubation such that the temperature of each of the wells in the culture plate 18 reaches the set temperature. Then, in the bacteriological testing instrument 1, while performing the incubation, the bacteria included in each of the wells can be monitored through the microscopic observation optical system. The microscopic observation may be performed for a set period of time from the start of the incubation till the end thereof by continuously monitoring the state of bacterial proliferation. In addition, the monitoring may be performed at the set time after setting appropriate time, and the monitoring result can be compared with the monitoring result when the incubation is started. In addition, similar to the bacteriological testing instrument in the related art, the turbidity of each of the wells may be measured through the turbidity measurement optical system while incubating the culture plate 18. The measured result may be compared with the monitored result of the microscopic observation optical system.
(§2) The processor determines whether the bacteria proliferate or the proliferation is interrupted under the corresponding culture condition, based on the microscopic image to which the above-described necessary treatments are performed. The determination whether or not the proliferation is performed, is performed by comparing with the information obtained based on the images at different times in the same container. More specifically, based on the image after the treatment illustrated in FIGS. 4 to 6, for example, the areas of the bacteria are calculated, and it is determined whether or not the proliferation is performed by creating the graph as illustrated in FIG. 12.
(§3) The processor combines the information on whether or not the proliferation is performed under the culture condition with a combination of a certain concentration of the antimicrobial agent, and determines the minimum concentration of the antimicrobial agent (MIC, minimum inhibitory concentration) which becomes interruption of proliferation. Here, the MIC determination is performed with respect to all of the wells provided on the culture plate 21. For example, there are 96 wells on the culture plate 21, and various types of antimicrobial agents having different concentrations (for example, 0 μg/mL, 0.5 μg/mL, 1 μg/mL, 2.0 μg/mL, 4.0 μg/mL, 8.0 μg/mL, 16.0 μg/mL, . . . ) enter the wells.

[2] = system: Staphylococcus aureus separated from the patient B; experiment: as above; conditions: for antimicrobial susceptibility determination (comparison with the break points): FIG. 20(b)
Source text: as §1, §2, §3

[3] = system: E coli separated from a patient A; experiment: as above
Procedure: as §1, with “In addition, when an examination is performed by using the bacteriological testing instrument 1, culture is performed by mixing a bacterial suspension prepared from a specimen with a culture fluid in the culture plate (for example, a culture plate which has 96 wells in total is used) 18. In order” for “In order”
as §2
as §3, with “wells. Therefore, the minimum concentration (MIC) of the antimicrobial agent which becomes interruption of proliferation can be ascertained.” for “wells.”
(§4) The processor further determines whether the bacteria of the examination target is sensitive (S), resistant (R), and intermediate (I) with respect to the corresponding antimicrobial agent by comparing with a break point (a break point of Clinical and Laboratory Standards Institute (CLSI), a break point of Japanese Society of Chemotherapy, or a break point of EUCAST) which is stored as reference data. […]

[4] = system: E coli separated from a patient B; experiment: as above
Procedure: as §1, with “In addition, when an examination is performed by using the bacteriological testing instrument 1, culture is performed by mixing a bacterial suspension prepared from a specimen with a culture fluid in the culture plate (for example, a culture plate which has 96 wells in total is used) 18. In order” for “In order”
as §2
as §3, with “wells. Therefore, the minimum concentration (MIC) of the antimicrobial agent which becomes interruption of proliferation can be ascertained.” for “wells.”
as §4

[5] = system: E coli (ATCC25922); experiment: antimicrobial susceptibility testing by microscopic observation (binarized images); conditions: ampicillin 2 μg/mL in culture fluid; 180 minutes from the start of culture (FIG. 5(b))
Procedure: In addition, when an examination is performed by using the bacteriological testing instrument 1, culture is performed by mixing a bacterial suspension prepared from a specimen with a culture fluid in the culture plate (for example, a culture plate which has 96 wells in total is used) 18. In order to perform the antimicrobial susceptibility testing, antimicrobial agents different from each other are set so as to be respectively contained in the culture fluids in each of the wells in particular concentrations. An order of the culturing is as follows. First, the bacterial suspension is introduced into the culture plate 18. Then, the bacterial suspension is in a state of being mixed with the culture fluid which is included in each of the wells, and the temperature controller 16 is set to a temperature of approximately 35° C. […] Then, in the bacteriological testing instrument 1, while performing the incubation, the bacteria included in each of the wells can be monitored through the microscopic observation optical system. […] In addition, similar to the bacteriological testing instrument in the related art, the turbidity of each of the wells may be measured through the turbidity measurement optical system while incubating the culture plate 18. The measured result may be compared with the monitored result of the microscopic observation optical system. […]

[6] = system: Pseudomonas aeruginosa; experiment: antimicrobial susceptibility testing by microscopic observation, circularity of the bacteria
Procedure: as §1, with “In addition, when an examination is performed by using the bacteriological testing instrument 1, culture is performed by mixing a bacterial suspension prepared from a specimen with a culture fluid in the culture plate (for example, a culture plate which has 96 wells in total is used) 18. In order” for “In order”
FIG. 22 is a view (graph) illustrating a result obtained by antimicrobial susceptibility testing with respect to meropenem of Pseudomonas aeruginosa. The graph acquires the circularity of the Pseudomonas aeruginosa in the image measured through the microscopic observation, and illustrates the time-dependent change thereof. The plurality of Pseudomonas aeruginosa are observed in one image, but the circularity of each of the Pseudomonas aeruginosa is acquired, and the value obtained by calculating an average value of the bacteria in the image is plotted. In addition, the circularity is a value calculated by 4π×(area)/(perimeter length)^2. When the bacteria have a completely circular shape, 4π×πr^2/(2πr) ^2=1 is satisfied, and when the bacteria is deviated from a completely circular shape, the perimeter length increases, and thus, the circularity value decreases.
In the graph, in a case where there is no the antimicrobial agent to be plotted by a “rhomboidal (diamond) shape”, the circularity of the Pseudomonas aeruginosa was hardly changed from the start of culture. […] In addition, when the concentration of meropenem of which the decrease in circularity is stopped is 0.5 μg/mL or greater, it is determined that the Pseudomonas aeruginosa becomes extinct. In a case where the bacteria are not extinct, the shape of the bacteria changes. […] The exemplary embodiment is an example in which the time-dependent change of the circularity of the bacteria is plotted instead of plotting the time-dependent change of the areas of the bacteria. However, in this manner, by plotting the time-dependent change of the feature values that become an index for indicating a degree of proliferation or growth of the bacteria in addition to the bacterial numbers or the areas of the bacteria, not only the minimum inhibitory concentration (MIC) of the bacteria but also the minimum bactericidal concentration (MBC) can be determined.

[7] = system: Enterococcus faecalis (ATCC29212); experiment: antimicrobial susceptibility testing by microscopic observation, areas of the bacteria; design: key: Waiting is determined, and “W” is displayed; Growth is determined, and “G” is displayed; Inhibit is determined, and “I” is displayed
Procedure: In addition, when an examination is performed by using the bacteriological testing instrument 1, culture is performed by mixing a bacterial suspension prepared from a specimen with a culture fluid in the culture plate (for example, a culture plate which has 96 wells in total is used) 18. In order to perform the antimicrobial susceptibility testing, antimicrobial agents different from each other are set so as to be respectively contained in the culture fluids in each of the wells in particular concentrations. An order of the culturing is as follows. First, the bacterial suspension is introduced into the culture plate 18. Then, the bacterial suspension is in a state of being mixed with the culture fluid which is included in each of the wells, and the temperature controller 16 is set to a temperature of approximately 35° C. Furthermore, culture is performed by performing incubation such that the temperature of each of the wells in the culture plate 18 reaches the set temperature. Then, in the bacteriological testing instrument 1, while performing the incubation, the bacteria included in each of the wells can be monitored through the microscopic observation optical system. […] In addition, similar to the bacteriological testing instrument in the related art, the turbidity of each of the wells may be measured through the turbidity measurement optical system while incubating the culture plate 18. The measured result may be compared with the monitored result of the microscopic observation optical system.
as §2, with “The determination whether or not the proliferation is performed, is performed by comparing with the information obtained based on the images at different times in the same container.” left out, “12. […]” for “12.”

## CC1(C)S[C@@H]2[C@H](NC(=O)[C@H](N)c3ccccc3)C(=O)N2[C@H]1C(=O)O [ampicillin]
[1]
  antimicrobial susceptibility determination (comparison with the break points): resistance
[2]
  antimicrobial susceptibility determination (comparison with the break points): Intermediate
[3]; FIG. 17(a)
  sensitivity determination (comparison with the break points): durability
[3]; all ampicillin conditions (FIG. 16(a))
  proliferation determination result (MIC determination result): determined to proliferate
[3]; ampicillin 512 μg/mL, compared to no antimicrobial agent (FIG. 15(a))
  time-dependent change of the areas of the bacteria (standardized by the areas at start of culture): slightly increases
[4]; after 180 minutes from the start of culture (FIG. 16(b))
  concentration at which the proliferation is interrupted (MIC determination result): ≥ 8 µg/mL
[4]; ampicillin 4 μg/mL (FIG. 15(b))
  time-dependent change of the areas of the bacteria (standardized by the areas at start of culture): increase tends to be stopped
[4]; ampicillin 8 μg/mL or greater (FIG. 15(b))
  time-dependent change of the areas of the bacteria (standardized by the areas at start of culture): area tends to decrease
[5]
  state of the bacteria in the microscopic observation image: elongated

## C[C@@H](O)[C@H]1C(=O)N2C(C(=O)O)=C(S[C@@H]3CN[C@H](C(=O)N(C)C)C3)[C@H](C)[C@H]12 [meropenem]
[6]; FIG. 22
  concentration at which the circularity continues to decrease: bacteria elongated but not become extinct yet: 0.125 µg/mL and 0.25 µg/mL
  concentration at which the decrease in circularity is stopped: bacteria become extinct (can be estimated as MBC): ≥ 0.5 µg/mL
[6]; meropenem 0.25 μg/mL, bacteria elongated (FIG. 22)
  time from the start of culture after which the circularity starts to decrease: 90 min
[6]; meropenem 0.5 μg/mL (FIG. 22)
  time-dependent change of the circularity: slightly decreases
[6]; meropenem 1.0 μg/mL (FIG. 22)
  time-dependent change of the circularity: slightly decreases
[6]; meropenem 2.0 μg/mL (FIG. 22)
  time-dependent change of the circularity: slightly decreases

## C[C@H]1COc2c(N3CCN(C)CC3)c(F)cc3c(=O)c(C(=O)O)cn1c23 [levofloxacin]
[7]; levofloxacin 0.5 μg/mL, after 120 minutes (FIG. 13)
  proliferation determination result: G
[7]; levofloxacin 1.0 μg/mL, after 150 minutes (FIG. 13)
  proliferation determination result: I
[7]; levofloxacin 2.0 μg/mL, after 150 minutes (FIG. 13)
  proliferation determination result: I

## CN[C@H](CC(C)C)C(=O)N[C@H]1C(=O)N[C@@H](CC(N)=O)C(=O)N[C@H]2C(=O)N[C@H]3C(=O)N[C@H](C(=O)N[C@H](C(=O)O)c4cc(O)cc(O)c4-c4cc3ccc4O)[C@H](O)c3ccc(c(Cl)c3)Oc3cc2cc(c3O[C@@H]2O[C@H](CO)[C@@H](O)[C@H](O)[C@H]2O[C@H]2C[C@](C)(N)[C@H](O)[C@H](C)O2)Oc2ccc(cc2Cl)[C@H]1O [vancomycin]
[1]
  antimicrobial susceptibility determination (comparison with the break points): sensitivity
[1]; images within 300 minutes from the start of culture (FIG. 18, FIG. 19(a))
  concentration at which the proliferation is performed: 0.25 µg/mL
[2]
  antimicrobial susceptibility determination (comparison with the break points): Intermediate
[2]; images within 300 minutes from the start of culture (FIG. 18, FIG. 19(b))
  concentration at which the proliferation is performed: ≤ 0.5 µg/mL
